The test system of data set [1] is RKO. Put plainly: Cytotoxicity against human RKO cells at 5 uM incubated for 72 hrs by MTS assay. Format: functional. (In general: Formazan colour is commonly taken as a measure of viable cells.)
Data set [2] relates to HT-29. In words: Cytotoxicity against human HT-29 cells at 5 uM incubated for 72 hrs by MTS assay. The data set is classed as functional.
Data set [3] relates to HCT-116. In words: Cytotoxicity against human HCT-116 cells at 5 uM incubated for 72 hrs by MTS assay. The data set is classed as functional.
The test system of data set [4] is RKO. In words: Cytotoxicity against human RKO cells incubated for 72 hrs by MTS assay. Format: functional, cell-based.
Data set [5] is described as follows: Cytotoxicity against human NCM460 cells incubated for 72 hrs by MTS assay. Format: toxicity, cell-based.
Data set [6] deals with HCT-116. Put plainly: Cytotoxicity against human HCT-116 cells incubated for 72 hrs by MTS assay. The conditions noted are these: HCT-116, 72 h. The data set is classed as functional, cell-based.
For data set [7], the system named is HT-29. In words: Cytotoxicity against human HT-29 cells incubated for 72 hrs by MTS assay. Format: functional, cell-based. The conditions noted are these: HT-29, 72 h.

Structures are written as SMILES.

On to `CC(C)(C)C(=O)N1CCc2cccc(C3=CC(=O)N(c4ccccc4)C3=O)c21`, for which, in the data set on RKO [1], the Activity is reported as 10.63%.

In the case of `C=C(C)C(=O)N1CCc2ccccc21`, the Activity with HT-29 [2] is listed as 4.7%.

With `CC(=O)c1ccc(N2C(=O)C=C(c3cccc4c3N(C(=O)C(C)(C)C)CC4)C2=O)cc1`, the Activity in the data set on HT-29 [2] stood at 4.69%.

For the molecule `CN1C(=O)C=C(c2cccc3c2N(C(=O)c2ccccc2)CC3)C1=O`, the Activity was 26.15% in the data set on RKO [1] and 4.95% in the data set with HT-29 [2].

`CCN1C(=O)C=C(c2cccc3c2N(C(=O)C(C)(C)C)CC3)C1=O`: the results for the Activity with RKO [1], in the data set on HT-29 [2] and in the data set on HCT-116 [3] were 80.91%, 16.99% and 59.58%, respectively.

`CN1C(=O)C=CC1=O`: the Activity is recorded as 33.16% in the data set with RKO [1], 7.09% in the data set with HT-29 [2] and 51.17% in the data set on HCT-116 [3].

`C=CC(=O)N1CCc2cccc(C3=CC(=O)N(C)C3=O)c21`: the Activity with RKO [1] is 78.18%; in the data set with HT-29 [2] it was 2.14%; with HCT-116 [3] it was 23.11%.

As for `CC(C)(C)C(=O)N1CCc2cccc(C3=CC(=O)N(Cc4ccccc4)C3=O)c21`, the Activity in the data set with RKO [1] is 39.93%.

The molecule `CN1C(=O)C=C(c2cccc3c2N(C(=O)N2CCCCC2)CC3)C1=O` came in with an Activity with RKO [1] of 17.85%.

For `CCc1ccc(N2C(=O)C=C(c3cccc4c3N(C(=O)C(C)(C)C)CC4)C2=O)cc1`, the values for the Activity with RKO [1], with HT-29 [2] and in the data set on HCT-116 [3] were 7.21%, 7.09% and 10.96%, respectively.

In the case of `CC1Cc2cccc(C3=CC(=O)N(C)C3=O)c2N1C(=O)C(C)(C)C` (stereo not drawn), the Activity came out at 61.74% with RKO [1] and 2.07% in the data set on HT-29 [2].

In turn, `Cc1cc2c(c(C3=CC(=O)N(C)C3=O)c1)N(C(=O)C(C)(C)C)CC2` had an Activity with RKO [1] of 17.49%.

The molecule `COc1ccc2c(c1C1=CC(=O)N(C)C1=O)N(C(=O)C(C)(C)C)CC2` yielded an Activity with RKO [1] of 21.09%.

`CC1CN(C(=O)C(C)(C)C)c2c(C3=CC(=O)N(C)C3=O)cccc21` (stereo not drawn): the Activity in the data set with RKO [1] is given as 56.28%; in the data set with HT-29 [2] it was 6.02%.

The molecule `CC(C)(C)C(=O)N1CCc2cccc(C3=CC(=O)N(C4CCCCC4)C3=O)c21` gave an Activity in the data set on RKO [1] of 38.47%.

In the data set on RKO [1], `CC(C)N1C(=O)C=C(c2cccc3c2N(C(=O)C(C)(C)C)CC3)C1=O` gave an Activity of 19.15%.

Take `CN1C(=O)C=C(c2c(F)ccc3c2N(C(=O)C(C)(C)C)CC3)C1=O`: in the data set with RKO [1], the Activity was determined as 32.98%.

Regarding `O=c1[nH]cc(F)c(=O)[nH]1` [FLUOROURACIL], the Activity in the data set with RKO [1] came to 52.32%; in the data set with HT-29 [2], 29.52%; in the data set with HCT-116 [3], 37.53%. The IC50 – broadly, the midpoint of a concentration-inhibition curve – with RKO [4] turned out to be 3.96 µM; in the data set with HCT-116 [6], 8.03 µM. Further, in data set [5], the midpoint of inhibition, the IC50 at 72 h, lay at 7.95 µM.

With `CN1C(=O)C=C(c2cc(C#N)cc3c2N(C(=O)C(C)(C)C)CC3)C1=O`, the Activity with RKO [1] is recorded as 50.21%; with HT-29 [2], 4.68%.

For `CN1C(=O)C=C(c2cccc3c2N(C(=O)N2CCOCC2)CC3)C1=O`, the Activity in the data set with RKO [1] is listed as 22.03%; with HT-29 [2], 6.82%.

Turning to `CN1C(=O)C=C(c2cccc3c2N(C(=O)c2cc4ccccc4o2)CC3)C1=O`, the Activity was 46.33% with RKO [1] and 11.36% in the data set on HCT-116 [3].

As to `CC(=O)N1CCc2cccc(C3=CC(=O)N(C)C3=O)c21`, the Activity with RKO [1] was 48.13%; with HT-29 [2], 6.8%.

As for `CC(C)(C)C(=O)N1CCc2cccc(C3=CC(=O)NC3=O)c21`, the Activity in the data set on RKO [1] came to 10.96%.

For `CN1C(=O)C=C(c2cc(Cl)cc3c2N(C(=O)C(C)(C)C)CC3)C1=O`, the Activity with RKO [1] worked out at 15.17%.

With `CCC(=O)N1CCc2cccc(C3=CC(=O)N(C)C3=O)c21`, the results for the Activity in the data set with RKO [1] and in the data set on HCT-116 [3] were 80.31% and 4.19%, respectively.

In turn, `CN1C(=O)C=C(c2ccc(Cl)c3c2N(C(=O)C(C)(C)C)CC3)C1=O` yielded an Activity in the data set with RKO [1] of 57.87%.

Consider `CN1C(=O)C=C(c2cccc3c2N(C(=O)C2CC2)CC3)C1=O`, for which the Activity in the data set on RKO [1] came out at 88.42%; in the data set with HT-29 [2], 43.87%; in the data set on HCT-116 [3], 76.22%. For the same molecule, the values for the IC50 in the data set on RKO [4], with HCT-116 [6] and in the data set with HT-29 [7] were 2.12 µM, 3.45 µM and 5.11 µM, respectively.

With `CN1C(=O)C=C(c2cc(F)cc3c2N(C(=O)C(C)(C)C)CC3)C1=O`, the figures for the Activity with RKO [1], with HT-29 [2] and with HCT-116 [3] were 78.58%, 18.8% and 6.51%, respectively.

Take `CN(C)C(=O)N1CCc2cccc(C3=CC(=O)N(C)C3=O)c21`: the Activity in the data set with RKO [1] came out at 4.75%; with HT-29 [2], 5.08%.

With `CN1C(=O)C=C(c2cc(I)cc3c2N(C(=O)C(C)(C)C)CC3)C1=O`, the Activity with RKO [1] stood at 57.09%.

`COc1ccc(C2=CC(=O)N(C)C2=O)c2c1CCN2C(=O)C(C)(C)C`: the Activity in the data set with RKO [1] came out at 16.41%; in the data set on HT-29 [2], 4.04%.

Turning to `COC(=O)CCN1C(=O)C=C(c2cccc3c2N(C(=O)C(C)(C)C)CC3)C1=O`, the values for the Activity in the data set on RKO [1] and in the data set with HCT-116 [3] were 59.55% and 21.18%, respectively.

Molecule `CN1C(=O)C=C(c2cccc3c2N(C(=O)C2CCCCC2)CC3)C1=O` yielded an Activity in the data set on RKO [1] of 65.05%.

In the case of `CN1C(=O)C=C(c2cccc3c2N(C(=O)C(C)(C)C)CC3)C1=O`, the results for the Activity with RKO [1], with HT-29 [2] and in the data set on HCT-116 [3] were 79.24%, 49.95% and 76.85%, respectively. Besides, the IC50 was determined as 2.31 µM with RKO [4], 3.96 µM with HCT-116 [6] and 5.52 µM in the data set with HT-29 [7].

For the molecule `C=C(C)C(=O)n1ccc2cccc(C3=CC(=O)N(C)C3=O)c21`, the results for the Activity in the data set on RKO [1], with HT-29 [2] and in the data set with HCT-116 [3] were 58.25%, 10.28% and 32.89%, respectively.

(Values after ChEMBL document CHEMBL5550173, “Design, synthesis and biological evaluation of indoline-maleimide conjugates as potential antitumor agents for the treatment of colorectal cancer” (Bioorg Med Chem, 2024).)
